Laboratory results as given in PMC12726774, “HAEEPGP Peptide Efficiently Prevents Alzheimer's Disease Pathology in Vivo” (Alzheimer's & Dementia, 2025).
Like-named read-outs stand apart in the source and are kept apart here. Residues, ends and D or L forms follow the SMILES beside them. No end group written: not given here.

Legend:
in vivo = settings: mouse, plasma, iv
Description: (§1) Abstract Background Currently, the only disease‐modifying therapy for Alzheimer's disease (AD) is monoclonal antibodies against beta‐amyloid (Aβ). […] Short peptides could be an alternative treatment to high‐molecular weight antibodies. They have been successfully tested against various neuropathologies. […] The disadvantage of short peptides is their rapid elimination from an organism. In this work, we added PGP amino acids to the HAEE C‐terminus to stabilize the peptide, studied the pharmacokinetics of HAEEPGP and its ability to suppress AD‐associated pathology. Method Direct interaction of HAEEPGP and Aβ peptides was measured by isothermal titration calorimetry. Pharmacokinetics and distribution to tissues of ^125I labeled HAEEPGP were studied after its intravenous injection in C57BL/6 or 5xFAD mice. HAEEPGP ability to prevent Aβ pathological effect on HMC3 microglial cells was assessed by flow cytometry and IL‐6 ELISA kit. HAEEPGP inhibition effect on AD pathology was studied in vivo using two animal models: transgenic C. elegans overexpressing human Aβ and 5xFAD mice. […] Supported by the Russian Science Foundation (grant #19‐74‐30007).

[1] = background statement, no reference given; cited from earlier work
Description: They have been successfully tested against various neuropathologies. […] The disadvantage ...

Aβ = Aβ (Homo sapiens, UniProt P05067); assay: Isothermal titration calorimetry, interaction of HAEEPGP with Aβ; settings: read-out: Kd of binding to Aβ
Chain of Aβ (P05067 672-713 limits assumed): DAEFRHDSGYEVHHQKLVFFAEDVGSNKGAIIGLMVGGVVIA
Description: as §1

[2] = 125I labeled peptide
Description: as §1

Molecule | half-life (in vivo) [min] | BBB crossing [1] | toxic effect in vivo [1] | Kd (Aβ) [nM] | BBB crossing ([2]; intravenous injection, mice) | level in the mice brain over time ([2]; during an hour post-injection, intravenous) | level in the brain, 5xFAD vs wild type mice ([2]; intravenous, 5xFAD vs C57BL/6)
C[C@H](NC(=O)[C@@H](N)Cc1c[nH]cn1)C(=O)N[C@@H](CCC(=O)O)C(=O)N[C@@H](CCC(=O)O)C(=O)O [HAEE] (H-HAEE-OH) | 17 | able to cross the BBB | no toxic effect |  |  |  | 
HAEEPGP [HAEEPGP] | 56 ± 12 |  |  | 1640 | propitiously crossed BBB | constantly increased | higher in 5xFAD than in wild type mice
